Measured values from patent US9029553B2, “2-anilino nicotinyl linked 2-amino benzothiazole conjugates and process for the preparation thereof” (Council of Scientific & Industrial Research, priority 2011, dated 2015).

What was measured:
[1] = tested on: PARP; assay: Western blot of cell death targets; type: cell-based, human; details: 1 μM, 24 h, HL-60
Protocol: Apoptosis was further characterized by the western blot analysis. Cells were treated with tested compounds at 1 μM for 24 h and expression of key apoptotic proteins like NF-kB, survivin; PARP, Bcl-2 and HSP-90 were analyzed through western blot. Both NF-kB and survivin are highly expressed in HL-60 cells. NF-kB is a transcriptional factor regulating the expression of several genes in the cells whereas survivin is a cell cycle regulated inhibitor of apoptosis protein (IAP), mostly over expressed in most of the tumors.
During apoptotic stimuli activated caspase-3 appears to cause DNA fragmentation through activation of caspase activated DNAse (CAD) in the nucleus of the cells. […] Cancer cells have very high level of heat shock proteins. These are molecular chaperones expressed constitutively under normal conditions to maintain protein homeostasis and are induced upon environmental stress.

[2] = tested on: NCI-H23; assay: NCI SRB GI50 screen; type: cell-based; details: Homo sapiens, Non-small lung, 48 hrs exposure, read-out: Growth Inhibition GI50 NCI-H23
Protocol: (§1) 2-Anilino nicotinyl linked 2-amino benzothiazole conjugates of formula 9-12 were tested against fifty nine human cancer cell lines derived from nine cancer types (leukemia, non-small cell lung cancer, colon cancer, CNS cancer, melanoma, ovarian cancer, renal cancer, prostate cancer and breast cancer) as per NCI protocol. For each compound, dose response curves for individual cell lines were measured at a minimum of five concentrations at 10 fold dilutions. A protocol of 48 hrs continuous drug exposure was used, and a sulforhodamine B (SRB) protein assay was used to estimate cell viability or growth.

[3] = tested on: HCT-15; assay: NCI SRB GI50 screen; type: cell-based; details: Homo sapiens, Colon, 48 hrs exposure, read-out: Growth Inhibition GI50 HCT-15
Protocol: as §1

[4] = tested on: UACC-257; assay: NCI SRB GI50 screen; type: cell-based; details: Homo sapiens, Melanoma, 48 hrs exposure, read-out: Growth Inhibition GI50 UACC-257
Protocol: as §1

[5] = tested on: NCI-H322M; assay: NCI SRB GI50 screen; type: cell-based; details: Homo sapiens, Non-small lung, 48 hrs exposure, read-out: Growth Inhibition GI50 NCI-H322M
Protocol: as §1

[6] = tested on: SNB-75; assay: NCI SRB GI50 screen; type: cell-based; details: Homo sapiens, CNS, 48 hrs exposure, read-out: Growth Inhibition GI50 SNB-75
Protocol: as §1

[7] = tested on: KM12; assay: NCI SRB GI50 screen; type: cell-based; details: Homo sapiens, Colon, 48 hrs exposure, read-out: Growth Inhibition GI50 KM12
Protocol: as §1

[8] = tested on: HCT-116; assay: NCI SRB GI50 screen; type: cell-based; details: Homo sapiens, Colon, 48 hrs exposure, read-out: Growth Inhibition GI50 HCT-116
Protocol: as §1

[9] = tested on: ACHN; assay: NCI SRB GI50 screen; type: cell-based; details: Homo sapiens, Renal, 48 hrs exposure, read-out: Growth Inhibition GI50 ACHN
Protocol: as §1

[10] = tested on: SK-OV-3; assay: NCI SRB GI50 screen; type: cell-based; details: Homo sapiens, Ovarian, 48 hrs exposure, read-out: Growth Inhibition GI50 SK-OV-3
Protocol: as §1

[11] = tested on: COLO 205; assay: NCI SRB GI50 screen; type: cell-based; details: Homo sapiens, Colon, 48 hrs exposure, read-out: Growth Inhibition GI50 COLO 205
Protocol: as §1

[12] = tested on: M14; assay: NCI SRB GI50 screen; type: cell-based; details: Homo sapiens, Melanoma, 48 hrs exposure, read-out: Growth Inhibition GI50 M14
Protocol: as §1

[13] = tested on: A498; assay: NCI SRB GI50 screen; type: cell-based; details: Homo sapiens, Renal, 48 hrs exposure, read-out: Growth Inhibition GI50 A498
Protocol: as §1

[14] = tested on: SF-268; assay: NCI SRB GI50 screen; type: cell-based; details: Homo sapiens, CNS, 48 hrs exposure, read-out: Growth Inhibition GI50 SF-268
Protocol: as §1

[15] = tested on: HOP-62; assay: NCI SRB GI50 screen; type: cell-based; details: Homo sapiens, Non-small lung, 48 hrs exposure, read-out: Growth Inhibition GI50 HOP-62
Protocol: as §1

[16] = tested on: CAKI-1; assay: NCI SRB GI50 screen; type: cell-based; details: Homo sapiens, Renal, 48 hrs exposure, read-out: Growth Inhibition GI50 CAKI-1
Protocol: as §1

[17] = tested on: SR; assay: NCI SRB GI50 screen; type: cell-based; details: Homo sapiens, Leukemia, 48 hrs exposure, read-out: Growth Inhibition GI50 SR
Protocol: as §1

[18] = tested on: MDA-MB-231/ATCC; assay: NCI SRB GI50 screen; type: cell-based; details: Homo sapiens, Breast, 48 hrs exposure, read-out: Growth Inhibition GI50 MDA-MB-231/ATCC
Protocol: as §1

[19] = tested on: IGROV1; assay: NCI SRB GI50 screen; type: cell-based; details: Homo sapiens, IGROV-1; Ovarian, 48 hrs exposure; read-out: Growth Inhibition GI50 IGROV1
Protocol: as §1

[20] = tested on: SNB-19; assay: NCI SRB GI50 screen; type: cell-based; details: Homo sapiens, CNS, 48 hrs exposure, read-out: Growth Inhibition GI50 SNB-19
Protocol: as §1

[21] = tested on: HS 578T; assay: NCI SRB GI50 screen; type: cell-based; details: Homo sapiens, Breast, 48 hrs exposure, read-out: Growth Inhibition GI50 HS 578T
Protocol: as §1

[22] = tested on: 786-0; assay: NCI SRB GI50 screen; type: cell-based; details: Homo sapiens, Renal, 48 hrs exposure, read-out: Growth Inhibition GI50 786-0
Protocol: as §1

[23] = tested on: NCI-H460; assay: NCI SRB GI50 screen; type: cell-based; details: Homo sapiens, Non-small lung, 48 hrs exposure, read-out: Growth Inhibition GI50 NCI-H460
Protocol: as §1

[24] = tested on: BT-549; assay: NCI SRB GI50 screen; type: cell-based; details: Homo sapiens, Breast, 48 hrs exposure, read-out: Growth Inhibition GI50 BT-549
Protocol: as §1

[25] = tested on: OVCAR-8; assay: NCI SRB GI50 screen; type: cell-based; details: Homo sapiens, Ovarian, 48 hrs exposure, read-out: Growth Inhibition GI50 OVCAR-8
Protocol: as §1

[26] = tested on: OVCAR-5; assay: NCI SRB GI50 screen; type: cell-based; details: Homo sapiens, Ovarian, 48 hrs exposure, read-out: Growth Inhibition GI50 OVCAR-5
Protocol: as §1

[27] = tested on: LOX IMVI; assay: NCI SRB GI50 screen; type: cell-based; details: Homo sapiens, Melanoma, 48 hrs exposure, read-out: Growth Inhibition GI50 LOX IMVI
Protocol: as §1

[28] = tested on: HCC-2998; assay: NCI SRB GI50 screen; type: cell-based; details: Homo sapiens, Colon, 48 hrs exposure, read-out: Growth Inhibition GI50 HCC-2998
Protocol: as §1

With `O=C(Nc1nc2ccc([N+](=O)[O-])cc2s1)c1cccnc1Nc1cc(F)c(F)c(F)c1` [Compound 8, N3-(6-nitro-1,3-benzothiazol-2-yl)-2-[(3,4,5-trifluorophenyl)amino]-3-pyridine carboxamide] the “PARP cleavage (western blot)” value [1] was “highest potential”.
With `O=C(Nc1nc2ccc(F)cc2s1)c1cccnc1Nc1ccc(Cl)cc1` [Compound 9, N3-(6-fluoro-1,3-benzothiazol-2-yl)-2-(4-chloroanilino)nicotinamide] the GI50 [2] was 1.67 µM, the GI50 [3] was 3.32 µM and the GI50 [4] was 0.164 µM. For the same molecule, the GI50 [5] was 3.25 µM, the GI50 [6] was 2.95 µM and the GI50 [7] was 2.61 µM. For the same molecule, the GI50 [8] was 1.67 µM, the GI50 [9] was 3.08 µM and the GI50 [10] was 2.23 µM. It also gave a GI50 [11] of 1.68 µM, a GI50 [12] of 2.64 µM and a GI50 [13] of 1.92 µM. It also gave a GI50 [14] of 3.93 µM, a GI50 [15] of 2.7 µM and a GI50 [16] of 2.89 µM. For the same molecule, the GI50 [17] was 2.28 µM, the GI50 [18] was 1.85 µM and the GI50 [19] was 2 µM. The GI50 [20] was 3.65 µM, the GI50 [21] was 1.99 µM and the GI50 [22] was 2.78 µM. The GI50 [23] was 1.97 µM, the GI50 [24] was 2.05 µM and the GI50 [25] was 2.24 µM. The GI50 [26] was 2.63 µM, the GI50 [27] was 2.62 µM and the GI50 [28] was 2.75 µM. It also gave a melting point of 254 to 257 °C.
In the case of `O=C(Nc1nc2ccc(F)cc2s1)c1cccnc1Nc1ccc(Cl)cc1Cl` [Compound 10, N3-(6-fluoro-1,3-benzothiazol-2-yl)-2-(2,4-dichloroanilino)nicotinamide], the GI50 [2] is reported as 2.34 µM, the GI50 [3] is reported as 3.74 µM and the GI50 [4] is reported as 0.17 µM. It also gave a GI50 [5] of 3.24 µM, a GI50 [6] of 2.55 µM and a GI50 [7] of 2.9 µM. For the same molecule, the GI50 [8] was 2.19 µM, the GI50 [9] was 3.72 µM and the GI50 [10] was 2.5 µM. For the same molecule, the GI50 [11] was 1.9 µM, the GI50 [12] was 3.37 µM and the GI50 [13] was 2.83 µM. For the same molecule, the GI50 [14] was 3.88 µM, the GI50 [15] was 3.94 µM and the GI50 [16] was 1.5 µM. For the same molecule, the GI50 [17] was 3.03 µM, the GI50 [18] was 3.41 µM and the GI50 [19] was 1.82 µM. For the same molecule, the GI50 [20] was 3.66 µM, the GI50 [21] was 3.25 µM and the GI50 [22] was 3.77 µM. For the same molecule, the GI50 [23] was 2.56 µM, the GI50 [24] was 3.01 µM and the GI50 [25] was 2.78 µM. The GI50 [26] was 4.46 µM, the GI50 [27] was 4.19 µM and the GI50 [28] was 3.54 µM. The melting point was 208 to 210 °C.
For `COc1cc(Nc2ncccc2C(=O)Nc2nc3ccc(F)cc3s2)cc(OC)c1OC` [Compound 11, N3-(6-fluoro-1,3-benzothiazol-2-yl)-2-(3,4,5-trimethoxyanilino)nicotinamide], the GI50 [2] was 2.27 µM, the GI50 [3] was 4.38 µM and the GI50 [5] was 3.71 µM. It also gave a GI50 [6] of 4.48 µM, a GI50 [7] of 3.79 µM and a GI50 [8] of 3.49 µM. It also gave a GI50 [9] of 4.82 µM, a GI50 [10] of 7.4 µM and a GI50 [11] of 3.04 µM. The GI50 [12] was 3.08 µM, the GI50 [13] was 3.45 µM and the GI50 [14] was 6.56 µM. The GI50 [15] was 5.78 µM, the GI50 [16] was 3.15 µM and the GI50 [17] was 2.97 µM. For the same molecule, the GI50 [18] was 4.61 µM, the GI50 [19] was 1.77 µM and the GI50 [20] was 3.49 µM. It also gave a GI50 [21] of 2.57 µM, a GI50 [22] of 5.51 µM and a GI50 [23] of 3.3 µM. The GI50 [24] was 2.63 µM, the GI50 [25] was 3.62 µM and the GI50 [26] was 25.6 µM. For the same molecule, the GI50 [27] was 3.87 µM, the GI50 [28] was 2.94 µM and the melting point was 214 to 216 °C.
`COc1ccc2nc(NC(=O)c3cccnc3Nc3cc(OC)c(OC)c(OC)c3)sc2c1` [Compound 12, N-3-(6-methoxy-1,3-benzothiazol-2-yl)-2-(3,4,5-trimethoxyanilino) nicotinamide] showed a GI50 [2] of 5.38 µM, a GI50 [3] of 11.2 µM and a GI50 [4] of 8.45 µM. For the same molecule, the GI50 [5] was 17.3 µM, the GI50 [6] was 2.89 µM and the GI50 [7] was 4.51 µM. The GI50 [8] was 4.5 µM, the GI50 [9] was 6.47 µM and the GI50 [10] was 3.72 µM. The GI50 [11] was 17.4 µM, the GI50 [12] was 10.5 µM and the GI50 [13] was 2.19 µM. It also gave a GI50 [14] of 4.43 µM, a GI50 [15] of 6.33 µM and a GI50 [16] of 16.4 µM. It also gave a GI50 [17] of 2.31 µM, a GI50 [18] of 5.62 µM and a GI50 [19] of 13.2 µM. For the same molecule, the GI50 [20] was 15 µM, the GI50 [21] was 5.77 µM and the GI50 [22] was 5.6 µM. It also gave a GI50 [23] of 7.42 µM, a GI50 [24] of 11.6 µM and a GI50 [25] of 6.52 µM. It also gave a GI50 [26] of 14.5 µM, a GI50 [27] of 15.7 µM and a GI50 [28] of 17 µM. The melting point was 121 to 125 °C (dec.).
